Results as given in ChEMBL document CHEMBL3808354, “Synthesis and biological evaluation of oxindole linked indolyl-pyrimidine derivatives as potential cytotoxic agents” (Bioorg Med Chem Lett, 2016).
Active and inactive are the calls of the source. No cut-off for these calls is given here.

Columns and labels:
[1] = Cytotoxicity against human PA1 cells assessed as decrease in cell viability after 48 hrs by MTT assay; type: functional, cell-based; conditions: PA-1, 48 h
MCF7 = test: Cytotoxicity against human MCF7 cells assessed as decrease in cell viability after 48 hrs by MTT assay; type: functional, cell-based; conditions: MCF7, 48 h
[2] = Cytotoxicity against human U87MG cells assessed as decrease in cell viability after 48 hrs by MTT assay; type: functional, cell-based, U-87MG ATCC; conditions: U-87 MG
LNCaP = test: Cytotoxicity against human LNCAP cells assessed as decrease in cell viability after 48 hrs by MTT assay; type: functional, cell-based
[3] = Cytotoxicity against human RWPE1 cells assessed as decrease in cell viability after 48 hrs by MTT assay; type: cell-based; conditions: RWPE-1, 48 h
[4] = Selectivity ratio of IC50 for human RWPE1 cells to IC50 for human LNCAP cells; type: ADME, cell-based; conditions: RWPE1 cells and LNCaP cells, read-out: Ratio IC50
[5] = Cell cycle arrest in human PA1 cells assessed as accumulation at G2/M phase at 2.5 uM after 24 hrs by propidium iodide staining based flow cytometry (reference value: 15.72%); type: functional; conditions: PA-1
PA-1 [6] = test: Induction of apoptosis in human PA1 cells assessed as viable cells at 1 uM after 24 hrs by annexin V-FITC/propidium iodide staining based flow cytometry (reference value: 97.01%); type: functional; conditions: PA-1, 24 h, read-out: Activity
[7] = Cell cycle arrest in human PA1 cells assessed as accumulation at G2/M phase after 24 hrs by propidium iodide staining based flow cytometry; type: functional; conditions: PA-1
PA-1 [8] = test: Induction of apoptosis in human PA1 cells assessed as necrotic cells at 2.5 uM after 24 hrs by annexin V-FITC/propidium iodide staining based flow cytometry (reference value: 0.10%); type: functional
[9] = Cell cycle arrest in human PA1 cells assessed as accumulation at G0/G1 phase at 1 uM after 24 hrs by propidium iodide staining based flow cytometry (reference value: 73.23%); type: functional; conditions: PA-1
PA-1 [10] = test: Induction of apoptosis in human PA1 cells assessed as late apoptotic cells at 1 uM after 24 hrs by annexin V-FITC/propidium iodide staining based flow cytometry (reference value: 1.24%); type: functional
PA-1 [11] = test: Antiproliferative activity against human PA1 cells assessed as reduction in viable cells at 1 to 2.5 uM after 24 hrs by inverted phase contrast microscopy; type: functional, cell-based
PA-1 [12] = test: Induction of apoptosis in human PA1 cells assessed as early apoptotic cells at 1 uM after 24 hrs by annexin V-FITC/propidium iodide staining based flow cytometry (reference value: 1.65%); type: functional
PA-1 [13] = test: Induction of apoptosis in human PA1 cells assessed as early apoptotic cells at 2.5 uM after 24 hrs by annexin V-FITC/propidium iodide staining based flow cytometry (reference value: 1.65%); type: functional
PA-1 [14] = test: Induction of cell death in human PA1 cells assessed as chromatin condensation at 1 to 2.5 uM after 24 hrs by acridine orange/ethidium bromide staining based fluorescence microscopy; type: functional
[15] = Cell cycle arrest in human PA1 cells assessed as accumulation at S phase at 2.5 uM after 24 hrs by propidium iodide staining based flow cytometry (reference value: 10.25%); type: functional; conditions: PA-1
PA-1 [16] = test: Induction of cell death in human PA1 cells assessed as apoptotic body formation at 1 to 2.5 uM after 24 hrs by acridine orange/ethidium bromide staining based fluorescence microscopy; type: functional
PA-1 [17] = test: Induction of morphological changes in human PA1 cells assessed as cell shrinking at 1 to 2.5 uM after 24 hrs by inverted phase contrast microscopy; type: functional, cell-based
PA-1 [18] = test: Induction of cell death in human PA1 cells assessed as cell shrinking at 1 to 2.5 uM after 24 hrs by acridine orange/ethidium bromide staining based fluorescence microscopy; type: functional
PA-1 [19] = test: Induction of apoptosis in human PA1 cells after 24 hrs by annexin V-FITC/propidium iodide staining based flow cytometry; type: functional, cell-based
[20] = Cell cycle arrest in human PA1 cells assessed as accumulation at G2/M phase at 1 uM after 24 hrs by propidium iodide staining based flow cytometry (reference value: 15.72%); type: functional; conditions: PA-1
PA-1 [21] = test: Induction of cell death in human PA1 cells assessed as membrane blebbing at 1 to 2.5 uM after 24 hrs by acridine orange/ethidium bromide staining based fluorescence microscopy; type: functional
PA-1 [22] = test: Induction of morphological changes in human PA1 cells assessed as cell wall deformation at 1 to 2.5 uM after 24 hrs by inverted phase contrast microscopy; type: functional, cell-based
PA-1 [23] = test: Induction of apoptosis in human PA1 cells assessed as late apoptotic cells at 2.5 uM after 24 hrs by annexin V-FITC/propidium iodide staining based flow cytometry (reference value: 1.24%); type: functional
[24] = Cell cycle arrest in human PA1 cells assessed as accumulation at G0/G1 phase at 2.5 uM after 24 hrs by propidium iodide staining based flow cytometry (reference value: 73.23%); type: functional; conditions: PA-1
[25] = Cell cycle arrest in human PA1 cells assessed as accumulation at S phase at 1 uM after 24 hrs by propidium iodide staining based flow cytometry (reference value: 10.25%); type: functional; conditions: PA-1
PA-1 [26] = test: Induction of apoptosis in human PA1 cells assessed as viable cells at 2.5 uM after 24 hrs by annexin V-FITC/propidium iodide staining based flow cytometry (reference value: 97.01%); type: functional; conditions: PA-1, 24 h, read-out: Activity
PA-1 [27] = test: Induction of apoptosis in human PA1 cells assessed as necrotic cells at 1 uM after 24 hrs by annexin V-FITC/propidium iodide staining based flow cytometry (reference value: 0.10%); type: functional

Which IC50 [1] does the source give for Cn1cc(/C=C2/C(=O)Nc3ccccc32)c2cc(Nc3nccc(-c4ccc(O)cc4)n3)ccc21 here?
Its IC50 is 9.27 µM.

What about the IC50 (MCF7) of the same compound?
Its IC50 is 39.6 µM.

And the IC50 [2]?
Its IC50 is 13.2 µM.

What about the IC50 (LNCaP) of the same compound?
The IC50 was 10.8 µM.

And the IC50 [3]?
Its IC50 is 58.4 µM.

Which results are given for Cn1cc(/C=C2/C(=O)Nc3ccccc32)c2cc(Nc3nccc(-c4ccc(Cl)cc4Cl)n3)ccc21?
IC50 [1]: > 100 µM; IC50 (MCF7): > 100 µM; IC50 [2]: 36.8 µM; IC50 (LNCaP): > 100 µM

What does the source list for Cn1cc(/C=C2/C(=O)Nc3ccccc32)c2cc(Nc3nccc(-c4ccc(C(F)(F)F)cc4)n3)ccc21?
IC50 [1]: 63.9 µM; IC50 (MCF7): 65.2 µM; IC50 [2]: 26 µM; IC50 (LNCaP): > 100 µM

With COc1ccc(-c2ccnc(Nc3ccc4c(c3)c(/C=C3/C(=O)Nc5ccccc53)cn4C)n2)cc1 as the compound, how does the IC50 [1] read?
Its IC50 is over 100 µM.

And the IC50 (MCF7)?
The IC50 was over 100 µM.

And the IC50 [2]?
The IC50 was over 100 µM.

And the IC50 (LNCaP)?
Its IC50 is over 100 µM.

With Cn1cc(/C=C2/C(=O)Nc3ccccc32)c2cc(Nc3nccc(-c4cccnc4)n3)ccc21 as the compound, how does the IC50 [1] read?
Its IC50 is 18.1 µM.

And the IC50 (MCF7)?
The IC50 was 46.6 µM.

What about the IC50 [2] of the same compound?
The IC50 was 14.8 µM.

What about the IC50 (LNCaP) of the same compound?
The IC50 was 14.2 µM.

And the IC50 [3]?
The IC50 was 69.8 µM.

Which results are given for Cn1cc(/C=C2/C(=O)Nc3ccccc32)c2cc(Nc3nccc(-c4ccc(F)cc4)n3)ccc21?
IC50 [1]: 31.8 µM; selectivity ratio [4]: 10.3; IC50 (MCF7): 48.1 µM; IC50 [2]: 16.4 µM; IC50 (LNCaP): 16.3 µM; IC50 [3]: 168 µM

With Cc1ccc(-c2ccnc(Nc3ccc4c(c3)c(/C=C3/C(=O)Nc5ccccc53)cn4C)n2)cc1 as the compound, how does the IC50 [1] read?
Its IC50 is over 100 µM.

And the IC50 (MCF7)?
The IC50 was over 100 µM.

What about the IC50 [2] of the same compound?
The IC50 was over 100 µM.

And the IC50 (LNCaP)?
The IC50 was over 100 µM.

What does the source list for CCN(CC)CCNC(=O)c1c(C)[nH]c(/C=C2\C(=O)Nc3ccc(F)cc32)c1C [SUNITINIB]?
IC50 [1]: 7.97 µM; IC50 (MCF7): 23.8 µM; IC50 [2]: 59.8 µM; IC50 (LNCaP): 12.6 µM; IC50 [3]: 23 µM

For Cn1cc(/C=C2/C(=O)Nc3ccccc32)c2cc(Nc3nccc(-c4ccccc4)n3)ccc21, which IC50 [1] is on record?
The IC50 was 17.3 µM.

And the IC50 (MCF7)?
The IC50 was 42.9 µM.

What about the IC50 [2] of the same compound?
Its IC50 is 14.1 µM.

And the IC50 (LNCaP)?
The IC50 was 13.4 µM.

What about the IC50 [3] of the same compound?
Its IC50 is 95.6 µM.

With Cn1cc(/C=C2/C(=O)Nc3ccccc32)c2cc(Nc3nccc(-c4ccc(Cl)cc4)n3)ccc21 as the compound, how does the Activity [5] read?
The Activity was 31.1%.

What about the IC50 [1] of the same compound?
The IC50 was 2.43 µM.

What about the viability at 1 µM (PA-1 [6]) of the same compound?
The viability at 1 µM was 75.5%.

What about the Activity [7] of the same compound?
The Activity was “Dose-dependent effect”.

What about the Activity (PA-1 [8]) of the same compound?
The Activity was 3.03%.

And the IC50 (MCF7)?
Its IC50 is 23.5 µM.

And the Activity [9]?
Its Activity is 67.8%.

What about the Activity (PA-1 [10]) of the same compound?
The Activity was 7.42%.

What about the Activity (PA-1 [11]) of the same compound?
Its Activity is “Active”.

And the Activity (PA-1 [12])?
Its Activity is 16.68%.

What about the Activity (PA-1 [13]) of the same compound?
Its Activity is 25.18%.

What about the Activity (PA-1 [14]) of the same compound?
Its Activity is “Active”.

What about the Activity [15] of the same compound?
Its Activity is 10.8%.

And the Activity (PA-1 [16])?
Its Activity is “Active”.

And the Activity (PA-1 [17])?
Its Activity is “Active”.

What about the IC50 [2] of the same compound?
Its IC50 is 5.82 µM.

And the Activity (PA-1 [18])?
Its Activity is “Active”.

What about the Activity (PA-1 [19]) of the same compound?
The Activity was “Dose-dependent effect”.

What about the Activity [20] of the same compound?
Its Activity is 17.6%.

And the Activity (PA-1 [21])?
The Activity was “Active”.

What about the Activity (PA-1 [22]) of the same compound?
Its Activity is “Active”.

And the IC50 (LNCaP)?
The IC50 was 6.59 µM.

What about the Activity (PA-1 [23]) of the same compound?
Its Activity is 20.01%.

What about the Activity [24] of the same compound?
The Activity was 57.1%.

And the Activity [25]?
The Activity was 13.6%.

What about the viability at 2.5 µM (PA-1 [26]) of the same compound?
The viability at 2.5 µM was 51.8%.

What about the IC50 [3] of the same compound?
Its IC50 is 41.1 µM.

And the Activity (PA-1 [27])?
Its Activity is 0.4%.

What does the source list for O=c1[nH]cc(F)c(=O)[nH]1 [FLUOROURACIL]?
IC50 [1]: 8.51 µM; IC50 (MCF7): 32.3 µM; IC50 [2]: 15.5 µM; IC50 (LNCaP): 47.2 µM

Which results are given for Cn1cc(/C=C2/C(=O)Nc3ccccc32)c2cc(Nc3nccc(-c4cccs4)n3)ccc21?
IC50 [1]: 7.94 µM; IC50 (MCF7): 30.8 µM; IC50 [2]: 7.18 µM; IC50 (LNCaP): 10.3 µM; IC50 [3]: 64.9 µM
